These results are taken from patent US4581460A, “Substituted 1-benzoyl-2-phenyliminoimidazolidine derivatives” (Chemie Linz Aktiengesellschaft, priority 1982, dated 1986).

The subject of the first test is phenyl-p-quinone-induced writhing syndrome of the mouse. Description: Writhing test (phenyl-p-quinone-induced writhing syndrome of the mouse). It counts as in vivo. Particulars: Mus musculus; oral, 60 min before i.p. phenyl-p-quinone; dose protecting 50% of the animals; read-out: ED50 (antiwrithing potency). Here is the method: 60 minutes after oral application of the test compounds mice were injected intraperitoneally with 0.3 ml of a 0.02% phenyl-p-quinone solution in a alcohol-water mixture (1:25 v/v). After the phenyl-p-quinone injection each mouse was observed during a span of 20 minutes.
The ED50 values (antiwrithing potency) were computed according to the method of N. R. Thompsom and C. S. Weil (Biometrics 8, 1952, 51-54, 249-263). The ED50 value refers to the dose (mg of test compound/kg of mouse) protecting 50% of the animals from pain in the writhing test.
`O=C(c1ccc(Cl)cc1)N1CCNC1=Nc1ccc(Cl)cc1Cl` [1-p-chlorobenzoyl-2-(2,4-dichlorophenylimino)-imidazolidine]: the 50% effective dose (ED50) came out at 3.54 mg/kg.

As for `CCOc1ccc(C(=O)N2CCNC2=Nc2c(Cl)cccc2Cl)cc1` [1-p-ethoxybenzoyl-2-(2,6-dichlorophenylimino)-imidazolidine], the 50% effective dose (ED50) was 0.98 mg/kg.

`COc1ccc(C(=O)N2CCNC2=Nc2cccc(Cl)c2Cl)cc1` [1-p-methoxybenzoyl-2-(2,3-dichlorophenylimino)-imidazolidine]: the 50% effective dose (ED50) came to 0.99 mg/kg.

Consider `O=C(c1ccc(F)cc1)N1CCNC1=Nc1c(Cl)cccc1Cl` [1-p-fluorobenzoyl-2-(2,6-dichlorophenylimino)-imidazolidine], for which the ED50 came to 0.81 mg/kg.

As to `O=C(c1cccc(F)c1)N1CCNC1=Nc1cccc(Cl)c1Cl` [1-m-fluorobenzoyl-2-(2,3-dichlorophenylimino)-imidazolidine], the ED50 came to 2.08 mg/kg.

For `O=C(c1ccc([N+](=O)[O-])cc1)N1CCNC1=Nc1ccc(Cl)cc1Cl` [1-p-nitrobenzoyl-2-(2,4-dichlorophenylimino)-imidazolidine], the ED50 was determined as 1.77 mg/kg.

Turning to `O=C(c1ccc(F)cc1)N1CCNC1=Nc1cccc(Cl)c1Cl` [1-p-fluorobenzoyl-2-(2,3-dichlorophenylimino)-imidazolidine], the ED50 worked out at 1.15 mg/kg.

As to `COc1ccc(C(=O)N2CCNC2=Nc2c(Cl)cccc2Cl)cc1OC` [1-(3,4-dimethoxybenzoyl)-2-(2,6-dichlorophenylimino)-imidazolidine], the ED50 turned out to be 4.36 mg/kg.

As to `Cc1cc(C(=O)N2CCNC2=Nc2c(Cl)cccc2Cl)ccc1[N+](=O)[O-]` [1-(3-methyl-4-nitrobenzoyl)-2-(2,6-dichlorophenylimino)-imidazolidine], the median effective dose (ED50) was 0.68 mg/kg.

Regarding `Cc1cccc(Cl)c1N=C1NCCN1C(=O)c1ccc(F)cc1` [1-p-fluorobenzoyl-2-(2-chloro-6-methylphenylimino)imidazolidine], the 50% effective dose (ED50) came to 1 mg/kg.

With `Cc1ccc(C(=O)N2CCNC2=Nc2c(Cl)cccc2Cl)cc1F` [1-(3-fluoro-4-methylbenzoyl)-2-(2,6-dichlorophenylimino)-imidazolidine], the ED50 was determined as 0.5 mg/kg.

On to `CC(C)Oc1ccc(C(=O)N2CCNC2=Nc2c(Cl)cccc2Cl)cc1` [1-p-isopropoxybenzoyl-2-(2,6-dichlorophenylimino)-imidazolidine], for which the ED50 turned out to be 0.54 mg/kg.

Consider `N#Cc1cccc(C(=O)N2CCNC2=Nc2c(Cl)cccc2Cl)c1` [1-m-cyanobenzoyl-2-(2,6-dichlorophenylimino)-imidazolidine], for which the ED50 stood at 0.25 mg/kg.

`O=C(c1ccc(Cl)cc1)N1CCNC1=Nc1cccc(Cl)c1Cl` [1-p-chlorobenzoyl-2-(2,3-dichlorophenylimino)-imidazolidine]: the ED50 was found to be 1.26 mg/kg.

With `CS(=O)(=O)c1ccc(C(=O)N2CCNC2=Nc2c(Cl)cccc2Cl)cc1` [1-(p-methylsulfonylbenzoyl)-2-(2,6-dichlorophenylimino)-imidazolidine], the median effective dose (ED50) is 0.75 mg/kg.

Consider `CCCOc1ccc(C(=O)N2CCNC2=Nc2c(Cl)cccc2Cl)cc1` [1-(p-n-propoxybenzoyl)-2-(2,6-dichlorophenylimino)-imidazolidine], for which the median effective dose (ED50) turned out to be 0.46 mg/kg.

On to `O=C(c1ccc(F)cc1)N1CCNC1=Nc1cc(Cl)ccc1Cl` [1-p-fluorobenzoyl-2-(2,5-dichlorophenylimino)-imidazolidine], for which the ED50 was determined as 10 mg/kg.

For `O=C(c1cccc(Cl)c1)N1CCNC1=Nc1c(Cl)cccc1Cl` [1-m-chlorobenzoyl-2-(2,6-dichlorophenylimino)-imidazolidine], the ED50 came out at 0.81 mg/kg.

`COc1ccc(C(=O)N2CCNC2=Nc2c(Cl)cccc2Cl)cc1` [1-p-methoxybenzoyl-2-(2,6-dichlorophenylimino)-imidazolidine]: the ED50 is 0.63 mg/kg.

On to `CS(=O)(=O)c1ccc(C(=O)N2CCNC2=Nc2cccc(Cl)c2Cl)cc1` [1-p-methylsulfonylbenzoyl-2-(2,3-dichlorophenylimino)-imidazolidine], for which the ED50 was 1.04 mg/kg.

In the case of `COc1ccc(C(=O)N2CCNC2=Nc2c(C)cccc2Cl)cc1OC` [1-(3,4-dimethoxybenzoyl)-2-(2-chloro-6-methylphenylimino)-imidazolidine], the ED50 is 4.42 mg/kg.

Staying with this test, now noted: oral, 60 min before i.p. phenyl-p-quinone; dose protecting 50% of the animals.
On to `CCCCOc1ccc(C(=O)N2CCNC2=Nc2cccc(Cl)c2Cl)cc1` [1-p-n-butoxybenzoyl-2-(2,3-dichlorophenylimino-imidazolidine], for which the “ED50 (antiwrithing potency)” value is recorded as 4.49 mg of test compound/kg of mous.

The test is the same for the next values; noted with them: po; writhing test, mouse; dose protecting 50% of the animals; read-out: ED50 in the writhing test.
Turning to `CC(C)=CCN1CCC2(C)c3cc(O)ccc3CC1C2C` (centres unmarked) [Pentazocin, reference compound], the 50% effective dose (ED50) worked out at 168 mg/kg.

In the case of `N#Cc1ccc(C(=O)N2CCNC2=Nc2c(Cl)cccc2Cl)cc1` [1-p-cyanobenzoyl-2-(2,6-dichlorophenylimino)-imidazolidine], the 50% effective dose (ED50) amounted to 0.55 mg/kg.

Tested on in another test: not given
Assay: not given
Particulars: U.S. Pat. No. 4,142,051; cited from earlier work.
In the case of `O=C(C1CC=CCC1)N1CCNC1=Nc1c(Cl)cccc1Cl` (centres unmarked) [1-(cyclohex-3-en-1-oyl)-2-(2,6-dichlorophenylimino)-imidazolidine], the “analgesic properties (prior art)” value is given as “exhibit analgesic properties”.

Tested on in another test: not given
Assay: not given
Particulars: U.S. Pat. No. 3,988,345; U.S. Pat. No. 4,389,403; cited from earlier work.
Regarding `O=C(c1ccccc1)N1CCNC1=Nc1c(Cl)cccc1Cl` [benclonidine, 1-benzoyl-2-(2,6-dichlorophenylimino)-imidazolidine], the “antihypertensive / hypotensive effect (prior art)” value is on record as “marked antihypertensive effect”.

A word on the ED50: it is the dose at which the effect has come halfway, by size or by number of responders.
